System: bovine cultured trabecular meshwork cells
Assay: Effects on morphology of bovine cultured trabecular meshwork cells (image analysis of cell area)
Type: cell-based
Conditions: Bos taurus, 3 h, drug treatment for three hours at 37° C., rate of change in area by image analysis, read-out: EC50 (concentration required to reduce the cell area of the trabecular meshwork cells by 50%)
Description: In order to study utility of the present compounds in glaucoma, effects of the present compounds on morphology of trabecular meshwork cells were investigated.
The possibility has been reported that drugs having effects of increasing aqueous humor outflow can be found by evaluating effects of drugs on morphology of cultured trabecular meshwork cells (Invest. Ophthalmol. Vis. Sci., 33, 2631-2640 (1992)). Accordingly, effects of the present compounds on morphology of bovine cultured trabecular meshwork cells were studied in the similar manner to the method described in the above-mentioned literature.
Morphological changes in bovine cultured trabecular meshwork cells by adding the present compounds were quantitatively evaluated by image analysis.
Bovine trabecular meshwork cells (passage number 2 to 5) cultured in a basal medium for mammalian cell culture D-MEM (Dulbecco's Modified Eagle Medium, manufactured by Gibco Co., Ltd.) containing fetal bovine serum (10%), amphotericin B (2.5 μg/ml) and gentamicin (50 μg/ml) were treated with a trypsin-EDTA solution (0.05% trypsin, 0.53 mM EDTA·4Na) 24 hours before the later drug treatment and seeded in a 24-well plate (10^4 cells/well). Twelve hours before the later drug treatment, the cells were washed with phosphate-buffered physiological saline, and then the medium was replaced by D-MEM containing amphotericin B (2.5 μg/ml) and gentamicin (50 μg/ml) (hereinafter referred to as “medium A”).
A test compound was dissolved in dimethyl sulfoxide (DMSO), and the medium A was added to the solution, followed by sterilizing the solution by filtration. The medium A was further added to the solution to dilute it at a prescribed concentration. […]
Photographed cell images were incorporated from the photographs into an image analysis system with a CCD camera (manufactured by HAMAMATU Co., Ltd.). Outlines of the incorporated cell images were traced, and areas were measured. […]

EC50 [nM] | SMILES
580 | C=C(C(=O)c1ccc(/C=C/CN(C)C)cc1)c1ccccc1 [Compound No. 4-1, 1-[4-[(E)-3-(Dimethylamino)-1-propenyl]phenyl]-2-phenyl-2-propen-1-one]
840 | C=C(C(=O)c1ccc(CCCN(C)C)cc1)c1ccccc1 [Compound No. 4-2, 1-[4-[3-(Dimethylamino)propyl]phenyl]-2-phenyl-2-propen-1-one]
62000 | C=C(CC)C(=O)c1ccc(OCC(=O)O)c(Cl)c1Cl [Ethacrynic acid, reference compound]

From patent US6395932B1, “1,2-diphenyl-2-propen-1-one derivatives” (Santen Pharmaceutical Co., Ltd., priority 1999, dated 2002)
